In patent US8686028B2, “Substituted benzfurochromenes and related compounds for the prevention and treatment of bone related disorders” (Council of Scientific & Industrial Research, priority 2008, dated 2014):
“Also recorded” adds a separate entry of the source.

What was measured:
[1] = test system: ovariectomized immature female rats; assay: Estrogenicity, uterine fresh weight in ovariectomized immature female rats; assay type: in vivo, rat; settings: 10 mg/Kg oral; for Estrogenic Activity, % (second line of cell): relative to vehicle; for Estrogenic Activity (uterine fresh weight): three consecutive days, vehicle 16.46
Protocol: (§1) 21 day old immature female rats (25-30 grams) were ovariectomized and given 7 days post-operative rest. Thereafter they were treated orally with the test agent (10 mg/Kg body weight) or with vehicle or Ethynyl estradiol, the reference standard for three consecutive days. For anti-estrogenicity, other than the test chemical, ethynyl estradiol (0.01 mg/kg) was given at 15 minutes interval before the test chemical. Autopsy was done 24 h after last treatment and uterine fresh weight was taken.

[2] = test system: Calvarial osteoblast cells; assay: MTT cell proliferation assay; assay type: cell-based, rat; settings: 10^−10 M to 10^−6M, 24 hrs
Protocol: (§2) Neonatal rat calvarial cell cultures are prepared as described previously (Endocrinology 145:3451) using slight modification. Briefly, for primary osteoblast cell cultures, frontal and parietal bones from Sprague-Dawley rat neonates (1-3 day old) are digested in 0.1% collagenase/0.1% dispase in α-MEM to obtain 5 sequential digests. The second through fifth digests are combined and grown to confluence at 37° C. and 5% CO2 in air in α-MEM, supplemented with 10% fetal bovine serum (FBS), 2 mM glutamine, 100 U/ml penicillin-streptomycin, Non-essential amino acid solution and sodium pyruvate.
MTT [3-(4,5-dimethylthiazol-2-yl)-2,5-diphenyltetrazolium bromide] assay, first described by Mosmann in 1983, is based on the ability of a mitochondrial dehydrogenase enzyme from viable cells to cleave the tetrazolium rings of the pale yellow MTT and form a dark blue formazan crystals which is largely impermeable to cell membranes, thus resulting in its accumulation within healthy cells. Solubilisation of the cells by the addition of a detergent results in the liberation of the crystals which are solubilized. The number of surviving cells is directly proportional to the level of the formazan product created. The color can then be quantified using a simple colorimetric assay. The results can be read on a multiwell scanning spectrophotometer (Mosmann T. Rapid colorimetric assay for cellular growth and survival: application to proliferation and cytotoxicity assays. J Immunol Methods. 1983 Dec. 16; 65(1-2):55-63).
Calvarial osteoblast cells plated at a density of 2.0×10^3 cells/200 ul in 96 wells plates. Cells were grown to 60% confluency and then treated with following compounds S006-1709, S006-1710, 5006-1711, S006-1713 and; S006-1714 at concentrations ranging from 10^−10 M to 10^−6M for 24 hrs. After treatment media was removed and 10 mM MTT was added solution in phenol red free DMEM media. After an incubation of 4 hrs the MTT solution was removed. Blue colored crystals were formed which were dissolved in DMSO and absorbance was read on ELISA plate reader at 570 nm wavelength.

Calvarial osteoblasts [3] = assay: Mineralization of calvarial osteoblasts (Alizarin red extraction); assay type: cell-based, rat; settings: 10^−12 M and 10^−10 M
[4] = test system: ovariectomized immature female rats; assay: Anti-estrogenicity, uterine fresh weight with ethynyl estradiol co-treatment; assay type: in vivo, rat; settings: 10 mg/Kg oral plus ethynyl estradiol 0.01 mg/kg; for Anti-Estrogenic Activity, % (second line of cell): relative to ethynyl estradiol
Protocol: as §1

Calvarial osteoblasts [5] = assay: Alkaline phosphatase (ALP) activity for osteoblast differentiation, calvarial osteoblasts; assay type: cell-based, rat; settings: calvarial osteoblasts, 48 h
Protocol: as §2
70 to 80% confluent Calvarial osteoblasts were treated with μM S006-1709 for 48 h in the presence of ascorbate and glycerophosphate. At the end of incubation period, total ALP activity was measured with a method using p-nitrophenylphosphate (PNPP) as substrate. The reaction mixture contained diethanolamine buffer (1 mol/L, pH 9.8), 0.5 mmol/L MgCl2.6H2O, and 10 mmol/L PNPP. ALP activity was measured by taking OD of the amount of colored product formed by the dephosphorylation of PNPP at 405 nm. […] In addition, the effect of S006-1709 on mineralization of calvarial osteoblasts was studied.
(§3) We then studied its effect in osteoblast differentiation in both calvarial and bone marrow osteoblasts. Confluent calvarial osteoblasts (70 to 80%) were treated with S006-1710 for 48 h in the presence of ascorbate and glycerophosphate at concentrations ranging from 10^−16M to 10^−6M. At the end of incubation period, total ALP activity was measured with the same method used previously using p-nitrophenylphosphate (PNPP) as substrate.
70 to 80% confluent Calvarial osteoblasts were treated with S007-1351 for 48 h in the presence of ascorbate and glycerophosphate. At the end of incubation period, total ALP activity was measured with a method using p-nitrophenylphosphate (PNPP) as substrate. The reaction mixture contained diethanolamine buffer (1 mol/L, pH 9.8), 0.5 mmol/L MgCl2.6H2O, and 10 mmol/L PNPP. ALP activity was measured by taking OD of the amount of colored product formed by the dephosphorylation of PNPP at 405 nm.
70 to 80% confluent calvarial osteoblasts were treated with S007-1352 for 48 h in the presence of ascorbate and glycerophosphate at concentrations ranging from 10^−12M to 10^−6 M. At the end of incubation period, total ALP activity was measured with the same method used previously using p-nitrophenylphosphate (PNPP) as substrate.

bone marrow osteoblasts = assay: Mineralization of bone marrow osteoblasts (Alizarin red extraction); assay type: cell-based; settings: 10^−12M and 10^−10 M, 18 d bone marrow culture
Description: In addition, the effect of S006-1709 on mineralization of bone marrow osteoblasts was also studied.
In addition, the effect of S006-1710 on mineralization of bone marrow osteoblasts was also studied.

3T3-L1 cells = assay: Anti-adipogenic effect (Oil Red O) in 3T3-L1 cells; assay type: cell-based, mouse
Protocol: The best characterized model of adipogenesis in vitro is the 3T3-L1 cell line, a substrain of Swiss 3T3 mouse cell line. 3T3-L1 cells propagated under normal conditions have a fibroblastic phenotype. However, when treated with a combination of dexamethasone, isobutylmethylxanthine (IBMX or MIX) and insulin, 3T3-L1 cells adopt a rounded phenotype and within 5 days begin to accumulate lipids intracellularly in the form of lipid droplets.
3T3-L1 cells were plated in 48-well plates 40,000 cells/well. The cells were incubated in DMEM containing fetal calf serum for 2 days until the cells become confluent. The cells were then incubated with Adipogenesis initiation media which contains DMEM with 10% FCS, IBMX and dexamethasone for 48 hrs at 37° C., 5% CO2. After two days the media was replaced with Adipogenesis Progression media which contains DMEM/10% FCS and insulin for 48 hrs at 37° C., 5% CO2, Media was again changed gently to Adipogenesis maintenance media for 48 hrs at 37° C., 5% CO2. At the end of eight days of experiment the cells were fixed and then stained with Oil Red O which stains lipid droplets. The dye was extracted and extracted dye was transferred to a 96-well plate and absorbance of extracted Oil Red O was measured in a plate reader at 490 nm.
Compounds S006-1709, S007-1351-53, S007-1495 and S007-1500 were tested in vitro in 3T3L1 cell line at two concentrations 10^−10 M and 10^−12M. FIG. 8A depicts the adipocytes formed at the end of the 8 day experiment. The fixed cells were stained with Oil Red O. The dye was then extracted and quantified.

[6] = test system: Immature 21 d old female SD rat; assay: In vivo efficacy, BMD in immature female SD rats; settings: for BMD % increase versus vehicle control, FEMUR Global / BMD % increase versus vehicle control, FEMUR Mid-shaft / BMD % increase versus vehicle control, FEMUR Neck / BMD % increase versus vehicle control, LUMBER VERTEBRAE Global / BMD % increase versus vehicle control, LUMBER VERTEBRAE L-1 / BMD % increase versus vehicle control, LUMBER VERTEBRAE L-2 / BMD % increase versus vehicle control, LUMBER VERTEBRAE L-3 / BMD % increase versus vehicle control, LUMBER VERTEBRAE L-4 / BMD % increase versus vehicle control, TIBIA Global / BMD % increase versus vehicle control, TIBIA Proximal / BMD % increase versus vehicle control, TIBIA TFSP: one month
Protocol: Immature 21 d old female SD rat model was chosen, animals were randomized into four groups and treated with a daily dose of test agent or vehicle for one month and autopsied on day 31.
[…], the animals were shifted to metabolic cage for acclaimatization for 24 h with food and water. Post acclaimatization animals were further left in metabolic cage for 24 h with water but no food. Blood and urine samples were collected after 24 h. Various biochemical parameters like serum calcium, serum phosphorus, serum osteocalcin, serum alkaline phosphatase (ALP) were evaluated. The animals were autopsied on day 31 and lumbar vertebrae, femur and tibia bones were isolated, cleaned and fixed in 70% ethanol in saline and stored at 4° C. until BMD measurement. Initial and final body weight and uterine weight at autopsy were recorded. BMD measurements of region of interest (lumbar: global, L1-L4; femur: global, neck and mid-shaft; tibia: global, proximal and tibio-fibula junction point) was performed using a bone densitometer (Model 4500 Elite, Hologic) fitted with commercially available software (QDR 4500 ACCLAIM series) for a fan-beam DXA system that permits determination of bone densitometry and measurement of body composition in small animals in vivo.

[7] = test system: bone marrow derived osteoblasts; assay: ALP activity in bone marrow derived osteoblasts; assay type: cell-based; settings: 10^−16M to 10^−6M
Protocol: as §3

## COc1ccccc1-c1coc2cc(O)ccc2c1=O [Compound S006-1710, 7-Hydroxy-3-(2-methoxy-phenyl)-chromen-4-one]
[1]
  estrogenicity (in words): estrogenic
  Estrogenic Activity, % (second line of cell): 446%
  Estrogenic Activity (uterine fresh weight): 89.96
[2]
  effect on osteoblast proliferation (MTT): no osteoblast proliferating action
Calvarial osteoblasts [3]
  mineralization of calvarial osteoblasts (nascent calcium deposition, Alizarin red): stimulate mineralization
[4]
  Anti-Estrogenic Activity (uterine fresh weight): 79.9
  anti-estrogenicity (in words): not found to be anti-estrogenic
  Anti-Estrogenic Activity, % (second line of cell): 19%
Calvarial osteoblasts [5]; 10^−16M to 10^−6M
  osteoblast ALP activity vs vehicle control: significant increase
Bone marrow osteoblasts
  mineralization of bone marrow osteoblasts (nascent calcium deposition, Alizarin red): stimulate mineralization; also recorded: significant increase

## C=CCOc1ccc2c(c1C)OCC1c3ccccc3OC21 (stereo not shown) [Compound S007-1500, 3-Allyloxy-4-methyl-6a,11a-dihydro-6H-benzo[4,5]furo[3,2-c]chromene]
[1]
  estrogenicity (in words): devoid of any estrogenicity
3T3-L1 cells; 3T3L1, at different concentrations (10^−10 M and 10^−12M tested)
  effect on adipogenesis: significantly inhibited adipogenesis
[6]; 1 mg/kg daily
  BMD % increase versus vehicle control, FEMUR Global: +27%
  BMD % increase versus vehicle control, FEMUR Mid-shaft: +35%
  BMD % increase versus vehicle control, FEMUR Neck: +16%
  BMD % increase versus vehicle control, LUMBER VERTEBRAE Global: +13%
  BMD % increase versus vehicle control, LUMBER VERTEBRAE L-1: +6%
  BMD % increase versus vehicle control, LUMBER VERTEBRAE L-2: +21%
  BMD % increase versus vehicle control, LUMBER VERTEBRAE L-3: +5.5%
  BMD % increase versus vehicle control, LUMBER VERTEBRAE L-4: −8.5%
  BMD % increase versus vehicle control, TIBIA Global: +35%
  BMD % increase versus vehicle control, TIBIA Proximal: +16.5%
  BMD % increase versus vehicle control, TIBIA TFSP: +70%
[6]; 5 mg/kg daily
  BMD % increase versus vehicle control, FEMUR Global: +25%
  BMD % increase versus vehicle control, FEMUR Mid-shaft: +30%
  BMD % increase versus vehicle control, FEMUR Neck: +26%
  BMD % increase versus vehicle control, LUMBER VERTEBRAE Global: +17%
  BMD % increase versus vehicle control, LUMBER VERTEBRAE L-1: +7%
  BMD % increase versus vehicle control, LUMBER VERTEBRAE L-2: +14.5%
  BMD % increase versus vehicle control, LUMBER VERTEBRAE L-3: +25%
  BMD % increase versus vehicle control, LUMBER VERTEBRAE L-4: +14%
  BMD % increase versus vehicle control, TIBIA Global: +37%
  BMD % increase versus vehicle control, TIBIA Proximal: +33%
  BMD % increase versus vehicle control, TIBIA TFSP: +69%
[6]; both doses of 1.0 and 5.0 mg/kg
  BMD in Femur and Tibia (in words): significant increase
Calvarial osteoblasts [5]; 10^−12M to 10^−6M
  osteoblast ALP activity vs vehicle control: stimulated ALP activity
Calvarial osteoblasts [5]; 10^−12M to 10^−6M, listed as S-007-1500
  osteoblast ALP activity vs vehicle control: showed stimulation in ALP activity

## O=c1c(-c2ccccc2O)coc2c(O)c(O)ccc12 [Compound S007-1351, 7,8-Dihydroxy-3-(2-hydroxy-phenyl)-chromen-4-one]
3T3-L1 cells; 3T3L1, both concentrations (10^−10 M and 10^−12M)
  effect on adipogenesis: inducers of adipogenesis
other
  melting point: 240 to 242 °C
Calvarial osteoblasts [5]; 10^−12M to 10^−6M
  osteoblast ALP activity vs vehicle control: significant increase

## O=c1c(-c2ccccc2O)coc2cc(O)ccc12 [Compound S006-1711, 7-Hydroxy-3-(2-hydroxy-phenyl)-chromen-4-one]
[1]
  estrogenicity (in words): estrogenic
  Estrogenic Activity, % (second line of cell): 192%
  Estrogenic Activity (uterine fresh weight): 48.13
[2]
  effect on osteoblast proliferation (MTT): did not have any effect
other
  melting point: 196 to 198 °C
Calvarial osteoblasts [3]
  mineralization of calvarial osteoblasts (nascent calcium deposition, Alizarin red): stimulated mineralization
[4]
  Anti-Estrogenic Activity (uterine fresh weight): 85.16
  anti-estrogenicity (in words): not found to be anti-estrogenic
  Anti-Estrogenic Activity, % (second line of cell): 13%
[7]
  ALP activity in bone marrow derived osteoblasts: stimulated ALP activity
Calvarial osteoblasts [5]; 10^−16M to 10^−6M
  osteoblast ALP activity vs vehicle control: stimulated ALP activity
Bone marrow osteoblasts
  mineralization of bone marrow osteoblasts (nascent calcium deposition, Alizarin red): stimulated mineralization
